One series deals with anemic rat. As to the kind of experiment: curative test: bioavailability of iron / hemoglobin repletion in the anemic rat (cyanomethemoglobin method of Drabkin). Format: in vivo, rat (male albino, Wistar-derived stock). Particulars: for improvement in hemoglobin: 0.2 mg iron per day. From the text: The "curative" test results can be obtained in an oral administration technique, wherein the test animals are fed a prescribed iron-poor diet and are brought to an anemic condition through a controlled experimental technique. […] This test technique is generally standardized and has been used, with many variations, to determine bioavailability of iron in a variety of hematinics.
Reagent grade ferrous sulfate heptahydrate (Fisher Scientific Co.) was used without further purification at the calculated iron content of 20.1%.
Weanling male albino rats (Wistar-derived stock weighing between 45 and 55 grams) were placed in individual cages (newly galvanized) and provided with food and distilled water, ad libitum. The iron-low diet was that described by Pla and Fritz (J. Assoc. Offic. Anal. Chem. 54, 18 (1971). Weekly determination of hemoglobin content in tail blood was determined by the cyanomethemoglobin method of Drabkin adapted to 0.02 ml samples as recommended by these authors.
18 rats were selected for the test from a larger number to provide three matched groups of six, each having essentially equal initial hemoglobin values.
The solution prepared on Fridays was also dosed on Saturdays and Sundays. The solutions were administered by intragastric intubulation. The Negative Control Group received sham treatment consisting of plain water.
Body weights of all animals were recorded weekly and hemoglobin determinations were repeated after two and four weeks of dosing.

A further series concerns rats. The settings on record: oral ingestion; cited from earlier work.
The next series concerns rabbits. Particulars: intravenous route; cited from earlier work.
In another series the test system is humans. The settings on record: not without risk of some serious side effects; cited from earlier work.
The nature of series [1]: maximum amount of iron which can be complexed with galacturonic acid. Format: physicochemical. As for the experimental part: 25.5 grams of high-purity galacturonic acid were dissolved in 300 ml of distilled water with the addition of solid sodium carbonate until a pH of 8 to 9 was reached. Separately, 24 grams of anhydrous ferric chloride were dissolved in 300 ml of distilled water and this solution was then added slowly, by dropping funnel, to the aforementioned solution of galacturonic acid, adjusting with solid sodium carbonate as needed to keep the mixture slightly alkaline, e.g. pH 8-9, and keeping the mixture stirred moderately. A beautiful brown-red solution was thus obtained. In order to ascertain the maximum amount of iron which can be complexed with galacturonic acid, a solution of 189.9 grams of anhydrous ferric chloride was dissolved in 1500 ml of distilled water, and this solution was added gradually to the above solution, with good stirring, and always adjusting the alkalinity to a pH of 8-9. […] A light-brown precipitate then appeared which, however, was dissolved again completely in about an hour's time and a perfectly clear, deep brown-red solution again resulted. From the total amounts of galacturonic acid used and ferric chloride solution consumed in the test, it was calculated that one mol weight of galacturonic acid will complex three atom weights of iron. Actually, 2,989 atom-weights of iron were consumed, an amount well within experimental error.

In the case of ferrous sulfate, the improvement in hemoglobin entry with anemic rat (after four weeks of dosing) and in the series on anemic rat (after two weeks of dosing) was “significant improvement” each time. Further, in the series with anemic rat (as compared to the Example 1 Group, differences were nominal), the body weight gain result is listed as “averaged slightly better”. Moreover, the “efficacy in reversing mild deficiency anemia” value in the series with anemic rat (conclusion of the test) was “reversing mild deficiency anemia”. The results for the LD50 in the series on rats and in the series with rabbits were 5,000 milligrams per kilogram of body weight and 99 milligrams per kilogram of body weight, respectively. Moreover, in the series on humans, the tolerated oral dosage result is on record as “about 300 milligrams”.
With `O=C[C@H](O)[C@@H](O)[C@@H](O)[C@H](O)C(=O)O` [galacturonic acid], in series [1] (pH 8-9), the “iron actually consumed per mol weight of galacturonic acid” value was 2,989 atom-weights of iron. Further, the “iron complexed per mol weight of galacturonic acid” value in series [1] (pH 8-9, calculated from amounts consumed) is listed as “three”.

Values taken from patent publication US4058621A, “Iron complexes and foodstuffs containing them” (priority 1975, dated 1977).
